Assay: Example 2.1 rhamnolipid precipitation, filtration, centrifugation: lead
Conditions: for Treatment 2: Rhamnolipid and Filtration Cf / Treatment 3: Rhamnolipid and Centrifugation Cc / Treatment 1: Rhamnolipid Only Cr: lead concentration after treatment; for Treatment 1: Rhamnolipid Only (Rr) efficiency of removal / Treatment 2: Rhamnolipid and Filtration (Rf) efficiency of removal / Treatment 3: Rhamnolipid and Centrifugation (Rc) efficiency of removal: lead
Description: Structural variants of synthetic glycolipids were used to show the effect of the number and length of the hydrophobic tail(s) on rhamnolipid as a chemical precipitant. […] Solutions (10 mM) were made using nanopure water (≥18 MΩ-cm) then adjusted to a pH of 6.9±0.05 with HNO3 and NaOH. These solutions were made in advance and stored in the cold room for up to one month. They were brought to room temperature before each experiment.
Three metals were tested for binding with rhamnolipid. Lead as […] (Fisher Scientific, Waltham, MA, 99% purity), was chosen to represent a metal with high rhamnolipid-metal conditional stability constant; lanthanum as La(NO3)3 6(H2O) (Sigma-Aldrich, St. Louis, MO, 99.99% purity) was chosen as a representative REE; and magnesium as Mg(NO3)2 6(H2O) (Sigma-Aldrich, St. Louis, MO, 99% purity) was chosen to represent a metal with a low rhamnolipid-metal conditional stability constant (Hogan et al., 2017). Metal solutions (5 mM) were made using nanopure water (≥18 MΩ-cm) in 20 ml glass scintillation vials. All solutions were used within 15 min to ensure minimal adsorption to the glass vial.
Three glycolipid-based treatments were evaluated to remove metal from solution: (1) the addition of glycolipid with no further treatment (gravitational precipitation), (2) the addition of a glycolipid followed by filtration or (3) the addition of a glycolipid followed by centrifugation. Each metal (Pb, La, and Mg) was evaluated separately with each of the glycolipid structures. For each experiment, a metal solution was mixed with a glycolipid solution in a 1.7 ml reaction tube at varying molar ratios of glycolipid to metal: 0:1 (glycolipid-free control), 2:1, 5:1, and 10:1. The reactions were mixed in the order of nanopure water (≥18 MΩ-cm), glycolipid solution (10 mM), then metal solution (5 mM). The metal and glycolipid solutions were continuously stirred as they were aliquoted into the reaction tubes. The experiment was performed in triplicate.
The reaction tubes were mixed overnight (16 to 24 h) and then three samples were collected from each tube to measure the effect of each of the three treatments: a glycolipid only treatment sample, a filtration treatment sample, and a centrifugation treatment sample. Briefly, for the glycolipid only treatment samples all tubes were vortexed for approximately 5 sec immediately before removing 0.1 ml into a dilution tube of 2% trace metal grade nitric acid (12 to 14 ml) to minimize the settling of particles. For the filtration samples each reaction tube was vortexed for 5 sec and then a 0.6 ml aliquot was collected with a 1 ml syringe. A GHP acrodisc disk filter (hydrophilic polypropylene membrane, 0.45 μm pore size, 25 mm disc diameter) from Pall Life Sciences (Port Washington, New York) was then placed onto the end of the syringe and the solution was pushed through the filter. The void space in the disk filter holds approximately 0.5 ml, therefore around 0.1 ml of filtrate was collected into a dilution tube. For the centrifugation sample, the remaining solution was centrifuged at 10,000 RCF for 15 min. Approximately 0.1 ml of the supernatant was aliquoted into a dilution tube. Following collection, all samples were taken for metal analysis using ICP-MS.

For CCCCCCCCCC(CC(=O)O)OC(=O)CC(CCCCCCCCC)OC1O[C@@H](C)[C@H](O)[C@@H](O)[C@H]1O (stereo partly drawn) [Rha C12C12, rhamnosyl-β-hydroxydodecanoyl-62-hydroxydodecanoate], the “Treatment 2: Rhamnolipid and Filtration Cf” value (molar ratio 2 to 1) was 0.069 ± 0.018 mmol/L, the “Treatment 3: Rhamnolipid and Centrifugation Cc” value (molar ratio 2 to 1) was 0.146 ± 0.008 mmol/L and the “Treatment 1: Rhamnolipid Only Cr” value (molar ratio 5 to 1) was 0.204 ± 0.004 mmol/L. For the same compound, the “Treatment 2: Rhamnolipid and Filtration Cf” value (molar ratio 5 to 1) was 0.049 ± 0.021 mmol/L, the “Treatment 3: Rhamnolipid and Centrifugation Cc” value (molar ratio 5 to 1) was 0.047 ± 0.003 mmol/L and the “Treatment 1: Rhamnolipid Only Cr” value (molar ratio 10 to 1) was 0.249 ± 0.10 mmol/L. The “Treatment 2: Rhamnolipid and Filtration Cf” value (molar ratio 10 to 1) was 0.059 ± 0.028 mmol/L, the “Treatment 3: Rhamnolipid and Centrifugation Cc” value (molar ratio 10 to 1) was 0.129 ± 0.002 mmol/L and the “Treatment 1: Rhamnolipid Only Cr” value (molar ratio rhamnolipid:lead 2 to 1) was 0.211 ± 0.010 mmol/L. For the same compound, the “Treatment 1: Rhamnolipid Only (Rr) efficiency of removal” value (molar ratio 2 to 1) was “(22.4%)”, the “Treatment 2: Rhamnolipid and Filtration (Rf) efficiency of removal” value (molar ratio 2 to 1) was “(74.8%)” and the “Treatment 3: Rhamnolipid and Centrifugation (Rc) efficiency of removal” value (molar ratio 2 to 1) was “(46.4%)”. For the same compound, the “Treatment 1: Rhamnolipid Only (Rr) efficiency of removal” value (molar ratio 5 to 1) was “(25.0%)”, the “Treatment 2: Rhamnolipid and Filtration (Rf) efficiency of removal” value (molar ratio 5 to 1) was “(81.8%)” and the “Treatment 3: Rhamnolipid and Centrifugation (Rc) efficiency of removal” value (molar ratio 5 to 1) was “(82.8%)”. For the same compound, the “Treatment 1: Rhamnolipid Only (Rr) efficiency of removal” value (molar ratio 10 to 1) was “(8.6%)”, the “Treatment 2: Rhamnolipid and Filtration (Rf) efficiency of removal” value (molar ratio 10 to 1) was “(78.3%)” and the “Treatment 3: Rhamnolipid and Centrifugation (Rc) efficiency of removal” value (molar ratio 10 to 1) was “(52.8%)”.

— patent US20240182513A1, “SEPARATION OF METAL IONS FROM A SAMPLE USING GLYCOLIPIDS” (ARIZONA BOARD OF REGENTS ON BEHALF OF THE UNIVERSITY OF …, priority 2021, published 2024)
